# According to US7943156B2, “Use of peptides of general formula I X-SEQ ID No.1-Y in the preparation of cosmetic compositions which are intended to improve the firmness of the skin by increasing cell adhesion” (Lipotec, S.A., priority 2004, dated 2011):
# Entries after “also recorded” stand apart in the source; their conditions may differ. No end group written: not given here. *: point of attachment. Palmitoyl = CCCCCCCCCCCCCCCC(=O)*
# Legend:
# [1] = system: human epidermal keratinocytes (HEKa); assay: In vitro cell adhesion of keratinocytes to peptide-coated microwells (calcein fluorescence); assay type: cell-based; settings: for cell adhesion of keratinocytes: HEKa, peptide-coated microwells 0.5-250 μg/ml, 4 concentrations, 2 hours
# Description: 1-Y and the comparative evaluation between them.
# The cell cultures used in the following example are human epidermal keratinocytes (HEKa) in the presence of specific growth factors of keratinocytes.
# First, 96 microwells are placed in a plate, they are coated with 50 μL of a peptide of general formula X-SEQ ID NO.1-Y (0.5-250 μg/ml per microwell) in distilled water and dried overnight at room temperature.
# On the other hand, control assays are carried out with microwells coated with 40 μM of BSA (bovine serum albumin) so as to evaluate non-specific cell adhesion.
# All the microwells have been washed with 200 μL of PBS (phosphate buffered saline) and blocked for 1 hour with 1% BSA in PBS at 37° C.
# Trypsin was added to human cutaneous keratinocytes, and they were marked for 30 minutes at 37° C. in calcein-AM at a concentration of 5 μM and they were finally washed three times in Epilife® medium.
# The marked cells (4.5×10^4/microwell) were added to the plate previously coated with the X-SEQ ID No. 1-Y peptide and were incubated for 2 hours at 37° C. in an atmosphere humidified with 5% CO2.
# The cell adhesion was assessed by the measurement of calcein fluorescence before and after the washing.
# The percentage of cell adhesion was determined by dividing the fluorescence of adhered cells by the total fluorescence of cells added to each microwell.
# The cell adhesion promoted by the X-SEQ ID No. 1-Y peptides was calculated with respect to the non-specific adhesion of the cells to BSA.
# laminin V = assay: Immunostaining of laminin V expression in human fibroblasts and keratinocytes; assay type: cell-based; settings: human fibroblasts, immunofluorescence, vs control without peptide
# Text: (§1) Immunostaining assays have been carried out in human fibroblasts and keratinocytes in order to determine if SEQ ID No. 2 has the ability to enhance the expression of α6 integrin and laminin V (FIGS. 2, 3, 4, and 5).
# (§2) The assay uses a primary (monoclonal) antibody binding to the protein which is intended to be detected (integrin or laminin), and a secondary (polyclonal) antibody binding to the complex between the protein and the primary antibody. The secondary antibody is coupled to a fluorescent compound (FITC-Fluorescein Isothiocyanate).
# (§3) FITC is illuminated with filtered light at 495 nm (absorption wavelength) and the light emitted by the dye is detected at 528 nm (emission wavelength).
# beta 1 integrin = assay: Immunostaining, production of beta 1 integrin; assay type: cell-based, human
# α6 integrin = assay: Immunostaining of α6 integrin expression in human fibroblasts and keratinocytes; assay type: cell-based
# Text: as §1, §2, §3
# human fibroblasts = assay: Cell adhesion in in vitro fibroblast culture; assay type: cell-based; settings: vs untreated
# Text: The adhesion process at a cellular level has been determined by means of a in vitro fibroblast culture in the second embodiment assay.
# FIGS. 6 and 7 show a uniform coating of the assay microwell and the growth and distribution of the fibroblasts that are more related with cell adhesion than with cell proliferation.
substance,measurement,setting,value
Pal-SEQ ID No. 1: X-SEQ ID No. 1-Y peptide where X is the palmitoyl radical (Palmitoyl-IKVAV; listed as Homo sapiens),cell adhesion of keratinocytes,[1],Stimulation of keratinocyte adhesion
same,cell adhesion of keratinocytes,[1]; listed as Pal-SEQ ID NO.1,increase of cell adhesion
SEQ ID No. 1: peptide of general formula I in which X is hydrogen and Y is hydroxyl (H-IKVAV-OH; listed as Homo sapiens),cell adhesion of keratinocytes,[1],Stimulation of keratinocyte adhesion
same,cell adhesion of keratinocytes,[1]; listed as SEQ ID NO. 1,increase of cell adhesion
SEQ ID No. 2-amino: variant of SEQ ID No. 2 with Y amino (SEQ ID NO. 2-NH2) (SIKVAV-NH2; listed as Homo sapiens),cell adhesion of keratinocytes,[1],increase of cell adhesion
same,"keratinocyte cell adhesion, SEQ ID No. 2 vs SEQ ID No. 2-amino (FIG. 10)",[1]; small doses (0.5 μg/ml),greater
SEQ ID No. 2: peptide of general formula I in which X is serine and Y is hydroxyl; laminin-derived (SIKVAV-OH; listed as Homo sapiens),expression of laminin V,laminin V,increase of the expression; also recorded: significant increase
same,expression of laminin V,laminin V; listed as SEQ ID NO.2,stimulation of the expression
same,production of beta 1 integrin,beta 1 integrin,No variation
same,expression of α6 integrin,"α6 integrin; human fibroblasts, immunofluorescence, vs control without peptide",increase of the expression; also recorded: significant increase
same,expression of α6 integrin,"α6 integrin; human fibroblasts, immunofluorescence, vs control without peptide, listed as SEQ ID NO.2",stimulation of the expression
same,expression of α6 integrin,"α6 integrin; keratinocytes, immunostaining",not in keratinocytes
same,cell adhesion of keratinocytes,[1],Stimulation of keratinocyte adhesion
same,cell adhesion of keratinocytes,[1]; listed as SEQ ID NO. 2,increase of cell adhesion
same,cell adhesion of keratinocytes,[1]; listed as SEQ ID NO.2,increase of cell adhesion
same,"keratinocyte cell adhesion, comparison between peptides (FIG. 9)","[1]; extrapolated results of FIG. 9, SEQ ID No. 2 vs SEQ ID No. 1 vs Pal-SEQ ID No. 1",greater adhesion
same,"keratinocyte cell adhesion, SEQ ID No. 2 vs SEQ ID No. 2-amino (FIG. 10)",[1]; larger doses,greater adhesion
same,cell adhesion in human fibroblasts,human fibroblasts,promoting cell adhesion and migration
